Measurements taken from US20170121319A1, “Herbicidal Compounds” (Syngenta Participations AG, priority 2014, published 2017).

Legend:
Format in all cases: in vivo
Design in all cases: key: 5=total damage to plant; 0=no damage to plant
LOLPE [1] = test: Post-emergence herbicidal activity, glasshouse pot test
Experimental: (§1) Seeds of a variety of test species were sown in standard soil in pots. After 8 days cultivation (post-emergence) under controlled conditions in a glasshouse (at 24/16° C., day/night; 14 hours light; 65% humidity), the plants were sprayed with an aqueous spray solution derived from the formulation of the technical active ingredient in acetone/water (50:50) solution containing 0.5% Tween 20 (polyoxyethelyene sorbitan monolaurate, CAS RN 9005-64-5). The test plants were then grown in a glasshouse under controlled conditions (at 24/16° C., day/night; 14 hours light; 65% humidity) and watered twice daily. After 13 days, the test was evaluated (5=total damage to plant; 0=no damage to plant). Pre- and post-emergence testing was carried out as detailed above on the compounds A1, A2, A4 and A5 and their respective S-enantiomers.

[2] = system: ABUTH = Abutilon theophrasti; test: as above
Experimental: as §1

[3] = system: AMARE = Amaranthus retroflexus; test: as above
Experimental: as §1

ZEAMX = Zea mays [4] = test: as above
Experimental: as §1

SETFA = Setaria faberi [5] = test: as above; conditions: for SETFA damage score (0-5): 1000 g/Ha, evaluated after 13 days; for SEFTA damage score (0-5): comparison of enantiomers
Experimental: as §1

[6] = system: ECHCG = Echinochloa crus-galli; test: as above
Experimental: as §1

LOLPE [7] = test: Pre-emergence herbicidal activity, glasshouse pot test
Experimental: as §1, with “After” for “After 8 days”, “for one day (pre-emergence)” for “(post-emergence)”

[8] = system: ABUTH = Abutilon theophrasti; test: as above
Experimental: as §1, with “After” for “After 8 days”, “for one day (pre-emergence)” for “(post-emergence)”

[9] = system: AMARE = Amaranthus retroflexus; test: as above
Experimental: as §1, with “After” for “After 8 days”, “for one day (pre-emergence)” for “(post-emergence)”

ZEAMX = Zea mays [10] = test: as above
Experimental: as §1, with “After” for “After 8 days”, “for one day (pre-emergence)” for “(post-emergence)”

SETFA = Setaria faberi [11] = test: as above; conditions: for SETFA damage score (0-5): 1000 g/Ha, evaluated after 13 days; for SEFTA damage score (0-5): comparison of enantiomers
Experimental: as §1, with “After” for “After 8 days”, “for one day (pre-emergence)” for “(post-emergence)”

[12] = system: ECHCG = Echinochloa crus-galli; test: as above
Experimental: as §1, with “After” for “After 8 days”, “for one day (pre-emergence)” for “(post-emergence)”

[13] = 1000 g/Ha, evaluated after 13 days
[14] = comparison of enantiomers, 62.5 g/Ha
[15] = comparison of enantiomers, 250 g/Ha

| Structure (SMILES) | LOLPE damage score (0-5) (LOLPE [1]; [14]) | LOLPE damage score (0-5) (LOLPE [1]; [15]) | ABUTH damage score (0-5) [2, 14] | ABUTH damage score (0-5) [2, 15] | AMARE damage score (0-5) [3, 14] | AMARE damage score (0-5) [3, 15] | ZEAMX damage score (0-5) (ZEAMX = Zea mays [4]; [15]) | SEFTA damage score (0-5) (SETFA = Setaria faberi [5]; 62.5 g/Ha) | ECHCG damage score (0-5) [6, 14] | ECHCG damage score (0-5) [6, 15] | LOLPE damage score (0-5) (LOLPE [7]; [14]) | ABUTH damage score (0-5) [8, 14] | ABUTH damage score (0-5) [8, 15] | AMARE damage score (0-5) [9, 14] | AMARE damage score (0-5) [9, 15] | ZEAMX damage score (0-5) (ZEAMX = Zea mays [10]; [14]) | ZEAMX damage score (0-5) (ZEAMX = Zea mays [10]; [15]) | SEFTA damage score (0-5) (SETFA = Setaria faberi [11]; 250 g/Ha) | ECHCG damage score (0-5) [12, 14] | ECHCG damage score (0-5) [12, 15] | other results |
| --- | --- | --- | --- | --- | --- | --- | --- | --- | --- | --- | --- | --- | --- | --- | --- | --- | --- | --- | --- | --- | --- |
| CO[C@@H]1C(O)N(c2cc(C(C)(C)C)on2)C(=O)N1C (stereo partly drawn) [Example A1] | 5 | 5 | 2 | 5 | 5 | 5 | 5 | 5 | 5 | 5 | 1 | 4 | 2 | 5 | 5 | 4 | 5 | 5 | 5 | 5 | LOLPE damage score (0-5) (LOLPE [1]; [13]): 5; ABUTH damage score (0-5) [2, 13]: 5; AMARE damage score (0-5) [3, 13]: 5; ZEAMX damage score (0-5) (ZEAMX = Zea mays [4]; [13]): 5; ZEAMX damage score (0-5) (ZEAMX = Zea mays [4]; [14]): 5; SETFA damage score (0-5) (SETFA = Setaria faberi [5]): 5; SEFTA damage score (0-5) (SETFA = Setaria faberi [5]; 250 g/Ha): 5; ECHCG damage score (0-5) [6, 13]: 5; LOLPE damage score (0-5) (LOLPE [7]; [13]): 5; LOLPE damage score (0-5) (LOLPE [7]; [15]): 5; ABUTH damage score (0-5) [8, 13]: 5; AMARE damage score (0-5) [9, 13]: 5; ZEAMX damage score (0-5) (ZEAMX = Zea mays [10]; [13]): 3; SETFA damage score (0-5) (SETFA = Setaria faberi [11]): 5; SEFTA damage score (0-5) (SETFA = Setaria faberi [11]; 62.5 g/Ha): 4; ECHCG damage score (0-5) [12, 13]: 5 |
| CCO[C@H]1C(O)N(c2cc(C(C)(C)C)on2)C(=O)N1C (single isomer, unassigned) [A2 S-enantiomer, reference compound] | 0 | 1 | 1 | 1 | 5 | 5 | 1 | 0 | 0 | 1 | 1 | 1 | 1 | 5 | 5 | 1 | 1 | 0 | 0 | 3 |  |
| CCO[C@@H]1C(O)N(c2cc(C(C)(C)C)on2)C(=O)N1C (single isomer, unassigned) [Example A2] |  | 5 | 5 | 5 | 5 | 5 | 5 | 3 | 5 | 5 | 3 | 3 | 3 | 5 | 5 | 4 | 4 | 5 | 5 | 4 | ABUTH damage score (0-5) [2, 13]: 5; AMARE damage score (0-5) [3, 13]: 5; ZEAMX damage score (0-5) (ZEAMX = Zea mays [4]; [13]): 4; ZEAMX damage score (0-5) (ZEAMX = Zea mays [4]; [14]): 5; SETFA damage score (0-5) (SETFA = Setaria faberi [5]): 5; ECHCG damage score (0-5) [6, 13]: 5; ABUTH damage score (0-5) [8, 13]: 5; AMARE damage score (0-5) [9, 13]: 5; ZEAMX damage score (0-5) (ZEAMX = Zea mays [10]; [13]): 2; SETFA damage score (0-5) (SETFA = Setaria faberi [11]): 1; ECHCG damage score (0-5) [12, 13]: 4 |
| CO[C@H]1C(O)N(c2cc(C(C)(C)C)on2)C(=O)N1C (stereo partly drawn) [A1 S-enantiomer, reference compound] | 0 | 1 | 0 | 2 | 5 | 5 | 1 | 0 | 1 | 1 | 0 | 0 | 0 | 5 | 5 | 0 | 0 | 0 | 0 | 0 | ZEAMX damage score (0-5) (ZEAMX = Zea mays [4]; [14]): 1; SEFTA damage score (0-5) (SETFA = Setaria faberi [5]; 250 g/Ha): 2; LOLPE damage score (0-5) (LOLPE [7]; [15]): 0; SEFTA damage score (0-5) (SETFA = Setaria faberi [11]; 62.5 g/Ha): 0 |
| CCO[C@@H]1C(O)N(c2cc(C(C)(C)F)on2)C(=O)N1C (stereo partly drawn) [Example A5] | 5 | 5 | 5 | 5 | 5 | 5 | 5 | 5 | 5 | 5 | 4 | 5 | 5 | 5 | 5 | 5 | 5 | 5 | 5 | 2 | LOLPE damage score (0-5) (LOLPE [1]; [13]): 5; ABUTH damage score (0-5) [2, 13]: 5; AMARE damage score (0-5) [3, 13]: 5; ZEAMX damage score (0-5) (ZEAMX = Zea mays [4]; [13]): 5; ZEAMX damage score (0-5) (ZEAMX = Zea mays [4]; [14]): 5; SETFA damage score (0-5) (SETFA = Setaria faberi [5]): 5; SEFTA damage score (0-5) (SETFA = Setaria faberi [5]; 250 g/Ha): 5; ECHCG damage score (0-5) [6, 13]: 5; LOLPE damage score (0-5) (LOLPE [7]; [13]): 5; LOLPE damage score (0-5) (LOLPE [7]; [15]): 5; ABUTH damage score (0-5) [8, 13]: 5; AMARE damage score (0-5) [9, 13]: 5; ZEAMX damage score (0-5) (ZEAMX = Zea mays [10]; [13]): 3; SETFA damage score (0-5) (SETFA = Setaria faberi [11]): 5; SEFTA damage score (0-5) (SETFA = Setaria faberi [11]; 62.5 g/Ha): 5; ECHCG damage score (0-5) [12, 13]: 5 |
| CCO[C@H]1C(O)N(c2cc(C(C)(C)F)on2)C(=O)N1C (stereo partly drawn) [A5 S-enantiomer, reference compound] | 0 | 0 | 0 | 1 | 1 | 5 | 0 | 0 | 0 | 0 | 0 | 0 | 0 | 5 | 5 | 0 | 0 | 0 | 0 | 0 | ZEAMX damage score (0-5) (ZEAMX = Zea mays [4]; [14]): 0; SEFTA damage score (0-5) (SETFA = Setaria faberi [5]; 250 g/Ha): 1; LOLPE damage score (0-5) (LOLPE [7]; [15]): 0; SEFTA damage score (0-5) (SETFA = Setaria faberi [11]; 62.5 g/Ha): 0 |
| COC[C@@H]1C(O)N(c2cc(C(C)(C)C)on2)C(=O)N1C (stereo partly drawn) [Example A4, (4R)-1-(5-tert-butylisoxazol-3-yl)-5-hydroxy-4-(methoxymethyl)-3-methyl-imidazolidin-2-one] | 1 | 5 | 1 | 5 | 5 | 5 | 5 | 1 | 0 | 5 | 0 | 1 | 3 | 5 | 5 | 0 | 4 | 5 | 1 | 5 | LOLPE damage score (0-5) (LOLPE [1]; [13]): 5; ABUTH damage score (0-5) [2, 13]: 5; AMARE damage score (0-5) [3, 13]: 5; ZEAMX damage score (0-5) (ZEAMX = Zea mays [4]; [13]): 5; SETFA damage score (0-5) (SETFA = Setaria faberi [5]): 5; SEFTA damage score (0-5) (SETFA = Setaria faberi [5]; 250 g/Ha): 5; ECHCG damage score (0-5) [6, 13]: 5; LOLPE damage score (0-5) (LOLPE [7]; [13]): 5; LOLPE damage score (0-5) (LOLPE [7]; [15]): 5; ABUTH damage score (0-5) [8, 13]: 5; AMARE damage score (0-5) [9, 13]: 5; ZEAMX damage score (0-5) (ZEAMX = Zea mays [10]; [13]): 3; SETFA damage score (0-5) (SETFA = Setaria faberi [11]): 4; ECHCG damage score (0-5) [12, 13]: 5 |
